US6774220B1, “Compounds having lectinic properties and their biological applications” (Association pour le Développement de la Biothérapie …, priority 1995, dated 2004)
Like-named read-outs stand apart in the source and are kept apart here. Marks after values point to notes of the source that are not given here.

Experiments:
TG-180 tumour cells = test: Antitumour action on grafted TG-180 ascitic tumour; conditions: for anti-tumour effect (in words): TG-180 graft in mice
Method: In order to test the antitumour capacity of SCL inhibiting sugars, TG-180 tumour cells originating from a tumour resistant to chemical metabolic inhibitors was grafted. In a concentration of 3×10^6 cells injected i.p. into 20 gr Swiss mice, an ascitic tumour is obtained which is detectable in 10 days and kills practically 100% of the animals in 21-25 days.
In parallel series, the various groups of animals were treated 3 days after inoculation, either with a specific sugar (glucosamine, lactose, galacturonate, N.A.N.A., neuramine-lactose) in a 5 to 10% solution, the sugar concentration being 100 mM, or with the same treatment in association with an injection of immuno-stimulant (extract of corynebacterium parvum, Merieux, France), in a dose of 200 g/mouse, or interferon, or both.
4 groups of mice per experiment were used.
They are assessed by the percentage of tumours that appeared on the 10th day, the mean survival time of the animals (MST) in. days, and the final survival (as a percentage).

[1] = system: encephalomyocarditis virus (EMC); test: Protection of IFN against the encephalomyocarditis virus in Swiss mice, with SCL inhibiting sugars; type: in vivo; conditions: EMC virus i.p.
Method: The model used is the encephalomyocarditis virus (EMC) which kills mice in practically all cases after rather varying but relatively short incubation periods.
Male mice (average weight: […], aged 8 to 10 weeks) were injected i.p. with sodium galacturonate, glucosamine and N-acetylneuraminic acid (5 to 10% solutions containing 100 mM sugar). 24 hours afterwards, one hundred lethal doses (50%) of EMC virus are injected by the same route. After one hour, murine interferon is injected (in a dose of 20,000 units in 0.5 ml). Table 3 gives the number of animals surviving out of the total tested, the percentage and statistical significance.

T (lympho) cells = test: Stimulation over 24 hours of the synthesis of DNA in T (lympho) cells; type: cell-based
Method: XI Stimulation over 24 hours of the synthesis of DNA in T (lympho) cells

[2] = system: action of interferon (antiviral state against vesicular stomatitis virus) in mouse L cells; type: cell-based
[3] = single agent (+MEM, or IFN in reference group)
[4] = IL2 (100 u) +SCL + inhibitor (NANA 0.75 mmol.; oligo 41-55 3 μγ/ml)

Row | Molecule | Final survival (%) (TG-180 tumour cells; +CP) | Final survival, Number (TG-180 tumour cells; +CP) | MST (mean survival time) (TG-180 tumour cells; +CP) [days] | Tumours on 10th day (%) (TG-180 tumour cells; +CP) | Tumours on 10th day, number (TG-180 tumour cells; +CP) | Final survival (%) (TG-180 tumour cells; +CP +IFN) | Final survival, Number (TG-180 tumour cells; +CP +IFN) | MST (mean survival time) (TG-180 tumour cells; +CP +IFN) [days] | Tumours on 10th day (%) (TG-180 tumour cells; +CP +IFN) | Tumours on 10th day, number (TG-180 tumour cells; +CP +IFN) | Final survival (%) (TG-180 tumour cells; +IFN) | Final survival, Number (TG-180 tumour cells; +IFN) | MST (mean survival time) (TG-180 tumour cells; +IFN) [days] | Tumours on 10th day (%) (TG-180 tumour cells; +IFN) | Tumours on 10th day, number (TG-180 tumour cells; +IFN) | Final survival (%) (TG-180 tumour cells; agent alone) | Final survival, Number (TG-180 tumour cells; agent alone) | MST (mean survival time) (TG-180 tumour cells; agent alone) [days] | Tumours on 10th day (%) (TG-180 tumour cells; agent alone) | Tumours on 10th day, number (TG-180 tumour cells; agent alone) | also measured
1 | NCCCC(=O)O [GABA, gamma aminobutyric acid] | (53) % | 24 | 68 ± 11 | 55 | 25 | (56) % | 17 | 70 ± 13 | 23% | 7 | (24) % | 11 | 43 ± 10 | 42 | 19 | (13) % | 4 | 35 ± 9 | 46 | 14 | anti-tumour effect (in words) (TG-180 tumour cells): inhibit oncogenesis significantly
2 | N[C@H]1C(O)O[C@H](CO)[C@@H](O)[C@@H]1O (some centres unmarked) [Glucosamine, glucosamine] | (53) % | 40 | 67 ± 8 | 34 | 26 | (58) % | 35 | 70 ± 9 | 28% | 17 | (17) % | 8 | 39 ± 9 | 13 | 6 | (6) % | 1 | 28 ± 6 | 20 | 3 | Final survival (%) (TG-180 tumour cells; +CP, listed as glucosamine): 53%; number of animals surviving out of the total number tested [1, 3]: 1/30; percentage surviving [1, 3]: 3%; number of animals surviving out of the total number tested ([1]; sugar +IFN (20,000 units)): 14/45b; percentage surviving ([1]; sugar +IFN (20,000 units)): 31%
3 | O=C([O-])C1OC(O)C(O)C(O)C1O.[Na+] (centres unmarked) [Na glucuronate, reference compound] |  |  |  |  |  |  |  |  |  |  |  |  |  |  |  |  |  |  |  |  | anti-tumour effect (in words) (TG-180 tumour cells): comparable anti-tumour effects; number of animals surviving out of the total number tested [1, 3]: 6/45; percentage surviving [1, 3]: 13%; number of animals surviving out of the total number tested ([1]; sugar +IFN (20,000 units)): 5/45; percentage surviving ([1]; sugar +IFN (20,000 units)): 11%
4 | CC(C)(N)C(=O)O [alphaaminoiso., alpha aminoisobutyric acid] | (43) % | 13 | 66 ± 13 | 46 | 14 | (47) % | 14 | 64 ± 13 | 4d % | 12 | (13) % | 4 | 31 ± 10 | 50 | 15 | (7) % | 2 | 31 ± 7 | 20 | 6 | anti-tumour effect (in words) (TG-180 tumour cells): inhibit oncogenesis significantly
5 | CC(=O)N[C@H]1C(O)O[C@H](CO)[C@@H](O)[C@@H]1O (some centres unmarked) [N-acetylglucosamine] |  |  |  |  |  |  |  |  |  |  |  |  |  |  |  |  |  |  |  |  | anti-tumour effect (in words) (TG-180 tumour cells): comparable anti-tumour effects
6 | CCC(N)C(=O)O (stereo not drawn) [alphaaminobut., alpha aminobutyric acid] | (23) % | 7 | 55 ± 14 | 60 | 18 | (47) % | 14 | 62 ± 14 | 23% | 7 | (0) % | 0 | 25 ± 2 | 30 | 9 | (0) % | 0 | 26 ± 1 | 63 | 19 | 
7 | oligo 41-55: peptide SEQ ID NO: 5, position 41 to 55 in SEQ ID NO: 1 (GLGASRPRVAVRSAY; listed as Homo sapiens) |  |  |  |  |  |  |  |  |  |  |  |  |  |  |  |  |  |  |  |  | effect on the stimulation of DNA synthesis by SCL (in words) (T (lympho) cells; 24 hours): inhibited; synthesis of DNA, EXP. N° 1 (T (lympho) cells; [4]): 4,674 ± 832.52; synthesis of DNA, EXP. N° 2 (T (lympho) cells; [4]): 23,184 ± 2494
8 | OC[C@H]1O[C@@H](O[C@H]2[C@H](O)[C@@H](O)C(O)O[C@@H]2CO)[C@H](O)[C@@H](O)[C@H]1O (some centres unmarked) [Lactose, lactose] | (46) % | 14 | 82 ± 13 | 10 | 3 | (64) % | 29 | 75 ± 10 | 13% | 6 | (13) % | 6 | 64 ± 9 | 20 | 9 | (3) % | 1 | 26 ± 6 | 36 | 11 | Final survival (%) (TG-180 tumour cells; +CP, listed as lactose): 43%
9 | O=C[C@H](O)[C@@H](O)[C@@H](O)[C@H](O)C(=O)[O-].[Na+] [Na galacturonate, sodium galacturonate] | (20) % | 3 | 42 ± 16 | 13 | 2 | (73) % | 11 | 81 ± 17 | 6% | 1 | (13) % | 2 | 34 ± 15 | 40 | 6 | (6) % | 1 | 31 ± 10 | 20 | 3 | number of animals surviving out of the total number tested [1, 3]: 6/75; percentage surviving [1, 3]: 8%; number of animals surviving out of the total number tested ([1]; sugar +IFN (20,000 units)): 22/90a; percentage surviving ([1]; sugar +IFN (20,000 units)): 24%
10 | recombinant SCL: SCL expressed in mouse L cells transfected with plasmid containing the cloned gene, hexamethasone-inducible promoter (protein) SIHFSSPVFTSRSAAFSGRGAQVRLSSARPGGLGSSSLYGLGASRPRVAVRSAYGGPVGAGIREVTINQSLLAPLRLGADPFSQRVRQEESEQIKTLNNKFASFIDKVRFLEQQNKLLETKWTLLQEQKSAKSSRLPDIFEAQIAGLRGQLEAMQVDGGRLEQGLRTMQDVVEDFKNKYEDEINRRTAAENEFVVLKKDVDAAYMSKVELEAKVDALNDEINFLRTLNETELTELQSQISDTSVVLSMDNSRSLDLDGIIAEVKAQYEEMAKCSRAEAEAWYQTKFETLQAQAGKHGDDLRNTRNEISEMNRAIQRLQAEIDNIKNQRAKLEAAIAEAEERGELALKDARAKQEELEAALQRAKQDMARQLREYQELMSVKLALDIEIATYRKLLEGEESRLAGDGVGAANISVMNSTGGSSSGGGIGLTLGGTMGSNALSFSSSAGPGLLKAYSIRTASASRRSTRD |  |  |  |  |  |  |  |  |  |  |  |  |  |  |  |  |  |  |  |  | limit dilution of SCL at which the action of the interferon was completely blocked ([2]; 200 IU of interferon for 5 hours, then SCL in base 2 dilutions): 1/32; IFN titer ([2]; A: IFN + SCL induced by hexamethasone): <2 U; IFN titer ([2]; A: IFN + SCL non-induced): >5120 U; SCL titer (concentration of SCL which inhibits by 100% the antiviral state) ([2]; B: IFN 200 U + SCL): 32 U. 50%*; effect on antiviral state (in words) ([2]; interferon 5 hours, then SCL 18 hours): blocks the state of the antiviral effect
11 | SCL: SCL excreted in the H-1 medium by PBMC over 24 hours maintained without serum (protein) SIHFSSPVFTSRSAAFSGRGAQVRLSSARPGGLGSSSLYGLGASRPRVAVRSAYGGPVGAGIREVTINQSLLAPLRLGADPFSQRVRQEESEQIKTLNNKFASFIDKVRFLEQQNKLLETKWTLLQEQKSAKSSRLPDIFEAQIAGLRGQLEAMQVDGGRLEQGLRTMQDVVEDFKNKYEDEINRRTAAENEFVVLKKDVDAAYMSKVELEAKVDALNDEINFLRTLNETELTELQSQISDTSVVLSMDNSRSLDLDGIIAEVKAQYEEMAKCSRAEAEAWYQTKFETLQAQAGKHGDDLRNTRNEISEMNRAIQRLQAEIDNIKNQRAKLEAAIAEAEERGELALKDARAKQEELEAALQRAKQDMARQLREYQELMSVKLALDIEIATYRKLLEGEESRLAGDGVGAANISVMNSTGGSSSGGGIGLTLGGTMGSNALSFSSSAGPGLLKAYSIRTASASRRSTRD |  |  |  |  |  |  |  |  |  |  |  |  |  |  |  |  |  |  |  |  | effect on synthesis of DNA (in words) (T (lympho) cells; 24 hours): stimulates the synthesis of DNA; synthesis of DNA, EXP. N° 1 (T (lympho) cells; IL2 (100 u) +SCL, 24 hours): 6,167 ± 483.66; synthesis of DNA, EXP. N° 2 (T (lympho) cells; IL2 (100 u) +SCL, 24 hours): 35,438 ± 10.370
